Test results from PubChem BioAssay (NCI).
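Tested at 5 concentrations; 48 h exposure; 96-well plates; endpoints linearly interpolated, else capped at highest concentration. GI50 marks 50% less growth. Definition used: TGI = concentration required for complete inhibition of growth.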

Legend:
Experiment in all cases: DTP human tumour cell line panel, 48 h
SNB-75 CNS = test system: SNB-75 CNS
NCI/ADR-RES ovarian = test system: NCI/ADR-RES ovarian
DU-145 prostate = test system: DU-145 prostate
U251 CNS = test system: U251 CNS
LOX IMVI melanoma = test system: LOX IMVI melanoma
A549 NSCLC = test system: A549 NSCLC
HS 578T breast = test system: HS 578T breast
SK-OV-3 ovarian = test system: SK-OV-3 ovarian
IGROV1 ovarian = test system: IGROV1 ovarian
SN12C renal = test system: SN12C renal

| Compound | GI50 (SNB-75 CNS) [µM] | TGI (SNB-75 CNS) [µM] | GI50 (NCI/ADR-RES ovarian) [µM] | TGI (NCI/ADR-RES ovarian) [µM] | GI50 (DU-145 prostate) [µM] | TGI (DU-145 prostate) [µM] | GI50 (U251 CNS) [µM] | TGI (U251 CNS) [µM] | GI50 (LOX IMVI melanoma) [µM] | TGI (LOX IMVI melanoma) [µM] | GI50 (A549 NSCLC) [µM] | TGI (A549 NSCLC) [µM] | GI50 (HS 578T breast) [µM] | TGI (HS 578T breast) [µM] | GI50 (SK-OV-3 ovarian) [µM] | TGI (SK-OV-3 ovarian) [µM] | GI50 (IGROV1 ovarian) [µM] | TGI (IGROV1 ovarian) [µM] | GI50 (SN12C renal) [µM] | TGI (SN12C renal) [µM] |
| --- | --- | --- | --- | --- | --- | --- | --- | --- | --- | --- | --- | --- | --- | --- | --- | --- | --- | --- | --- | --- |
| BrCc1ccc(CBr)cc1 | 18.8 | > 100 | 6.95 | > 21.1 | 3.38 | 12.9 | 6.25 | > 100 | 4.51 | > 100 | 21.7 | 76.8 | 21.6 | 69 | 0.477 | 7.24 | 7 | > 87.4 | 2.2 | 6.27 |
| CN(C)CC1CCCC1=O (stereo not given) | – | 9.6 | – | 55.7 | – | > 46.9 | – | 14.9 | – | 4 | – | 49 | – | 56.2 | – | 28.6 | – | 21.5 | – | 2.85 |
| COc1ccc(C(=O)N2c3ccccc3Sc3ccccc32)c(OC)c1 | 0.209 | > 100 | 0.4 | 42.1 | 0.491 | > 100 | 0.615 | > 100 | 0.601 | > 100 | 0.785 | > 100 | 0.482 | > 100 | 0.715 | > 100 | 0.926 | > 100 | 0.586 | > 100 |
| O=C(O)COc1c(Cl)cc(Cl)c2cccnc12 | – | > 100 | – | > 100 | – | > 100 | – | > 100 | – | > 100 | – | > 100 | – | > 100 | – | > 100 | – | > 100 | – | > 100 |
| CC1=CC(=O)C(O)C2(C)C1CC(O)C13COC4(C)C(OC(=O)C41)C(O)C23 (stereo not given) | 22 | > 100 | 18.2 | 61.3 | 4.36 | 31.6 | 6.1 | 31.6 | 2.41 | 8.4 | 5.49 | 34 | 12.5 | 57.2 | 16.5 | 95.7 | 12.3 | 45.8 | 8.32 | 32.7 |
| CSC(=S)N/N=C(\C)c1cccc(C)n1 | – | 13.6 | – | > 36.3 | – | 12.8 | – | 33.8 | – | 15.1 | – | 29.1 | – | > 89 | – | 10.7 | – | 18 | – | 21.9 |
| O=c1[nH]cnc2c(C3NC(CO)C(O)C3O)c[nH]c12 (stereo not given) | > 100 | > 100 | > 100 | > 100 | > 100 | > 100 | > 100 | > 100 | > 100 | > 100 | > 100 | > 100 | > 100 | > 100 | > 100 | > 100 | > 100 | > 100 | > 100 | > 100 |
| CC(C)(C)c1ccc(C(=O)Nc2sc3c(c2C(N)=O)CCC(=O)C3)cc1 | 1.11 | 2.53 | 1.47 | 5.53 | 2.72 | 11.1 | 0.345 | 1.43 | 0.398 | 1.51 | 0.688 | 3.28 | 1.11 | 5.33 | 2.81 | 8.75 | 0.684 | 2.29 | 0.654 | 2.05 |
| CN(CCCCCl)P(=O)(OCCS(=O)(=O)CC(NC(=O)CCC(N)C(=O)O)C(=O)NC(C(=O)O)c1ccccc1)OCC1OC(n2cc(F)c(=O)[nH]c2=O)CC1O (stereo not given) | 14.5 | > 100 | 0.323 | > 65.1 | 0.214 | > 100 | < 0.0171 | > 41.6 | < 0.0127 | 52.2 | < 0.0506 | > 100 | 5.89 | 97.6 | 41.3 | > 100 | 0.0884 | > 100 | 0.41 | 16.9 |
| COc1ccc(C2[C@@H](Cl)C(=O)N2c2cc(OC)c(OC)c(OC)c2)cc1Cl (stereo not given in full) | 0.0734 | 71.2 | 0.0692 | > 100 | 0.37 | > 100 | 0.197 | 21.3 | 0.163 | 20.8 | 0.364 | > 100 | 0.0705 | 70.3 | 0.29 | > 100 | 0.343 | 41.5 | 0.414 | > 100 |
| N#Cc1c(N)[nH]c2ccc(Sc3ccccc3)cc12 | – | 23 | – | 10.2 | – | 15.5 | – | 17.5 | – | 7.56 | – | 12.1 | – | 25.8 | – | 20.3 | – | 8.36 | – | 6.64 |
| COc1ccc2cc(-c3c(-c4ccncc4)nc(-c4ccc(S(C)=O)cc4)n3C)ccc2c1 (stereo not given) | > 12.8 | > 25 | > 22.9 | > 25 | > 25 | > 25 | > 25 | > 25 | > 23.4 | > 25 | > 25 | > 25 | 13.8 | > 25 | 10.7 | > 25 | > 25 | > 25 | 18 | > 25 |
| Nc1ccccc1SCc1csc(-c2ccc(Cl)cc2)n1 | – | > 100 | – | 66.4 | – | 99.1 | – | 60.1 | – | 35.2 | – | > 100 | – | > 91.5 | – | > 89.6 | – | > 100 | – | 34.2 |
| CC(=O)c1c(C(F)(F)F)n([O-])c2ccc(C)cc2[n+]1=O | 3.28 | 18.1 | 3.34 | > 35.5 | 1.43 | 3.07 | 2.79 | > 35.4 | 3.29 | > 44.2 | 4.48 | 26.6 | 3.43 | > 58.5 | 5.02 | > 100 | 4.14 | > 100 | 1.5 | 4.72 |
| N/N=C1\CC(=O)NC(=O)N1 | – | > 100 | – | > 100 | – | > 100 | – | > 100 | – | > 100 | – | > 100 | – | > 100 | – | > 100 | – | > 100 | – | > 100 |
